The source of these data is patent US11434246B2, “EP4 antagonists” (Eisai R&D Management Co., Ltd., priority 2015, dated 2022).

SMILES strings stand for the structures.

In this assay the target is EP4 (Homo sapiens, UniProt P35408). Description: EP4 Antagonism by CRE-PLAP Reporter Assay (SE302 cells, PGE2-stimulated). It is filed as cell-based. The settings on record: SE302 (HEK293) cells, 3 ng/mL PGE2, overnight; single or multiple assay average values. More on the design: HEK293 cells express endogenous EP4; endogenous in cells; host or cells: SE302 (HEK293 clone with CRE-PLAP reporter). In outline:
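HEK293-derived SE302 cells with endogenous EP4 and CRE-driven secreted PLAP, in serum-free medium with 0.1% BSA, stimulated overnight with 3 ng/mL PGE2 plus compound. Supernatant PLAP read by luminescence (pH 11 carbonate buffer, 2 h). IC50 from % of control, normalized to DMSO with and without PGE2.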

Chain of EP4 (P35408 whole entry): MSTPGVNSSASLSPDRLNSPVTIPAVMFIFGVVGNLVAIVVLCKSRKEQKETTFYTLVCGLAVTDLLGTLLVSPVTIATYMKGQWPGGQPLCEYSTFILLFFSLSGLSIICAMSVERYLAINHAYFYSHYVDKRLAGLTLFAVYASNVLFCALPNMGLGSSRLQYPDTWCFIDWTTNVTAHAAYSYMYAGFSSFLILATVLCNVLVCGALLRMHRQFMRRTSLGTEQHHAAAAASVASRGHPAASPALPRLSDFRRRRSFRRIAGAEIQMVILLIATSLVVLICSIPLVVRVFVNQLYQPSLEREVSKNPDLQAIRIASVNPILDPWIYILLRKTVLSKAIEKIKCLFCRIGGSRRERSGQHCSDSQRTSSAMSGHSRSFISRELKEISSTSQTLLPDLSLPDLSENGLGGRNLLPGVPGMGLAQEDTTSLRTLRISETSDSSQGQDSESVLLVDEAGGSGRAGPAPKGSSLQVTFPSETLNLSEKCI

One may read the IC50 as the concentration at which inhibition is half-maximal. Low values mean inhibition by little substance, high ones a need for much substance. On to `C[C@H](NC(=O)c1c(C(F)(F)F)nn2c1[N+]([O-])(Cc1cccc(I)c1)CC2)c1ccc(C(=O)O)cc1` (stereo partly drawn) [Compound 76, 7-(((S)-1-(4-carboxyphenyl)ethyl)carbamoyl)-1-(3-iodobenzyl)-6-(trifluoromethyl)-2,3-dihydro-1H-imidazo[1,2-b]pyrazole 1-oxide], for which the IC50 was found to be 4.12 nM.
`C[C@H](NC(=O)c1c(C(F)(F)F)nn2c1N(Cc1cc(O)cc(C(F)(F)F)c1)CC2)c1ccc(C(=O)O)cc1` [Compound 77, (S)-4-(1-(1-(3-hydroxy-5-(trifluoromethyl)benzyl)-6-(trifluoromethyl)-2,3-dihydro-1H-imidazo[1,2-b]pyrazole-7-carboxamido)ethyl)benzoic Acid] gave an IC50 of 0.182 nM.
With `C[C@H](NC(=O)c1c(C(F)(F)F)nn2c1N(CC1CCC(CF)CC1)CC2)c1ccc(C(=O)O)cc1` (stereo partly drawn) [Compound 78, (S)-4-(1-(1-((4-(fluoromethyl)cyclohexyl)methyl)-6-(trifluoromethyl)-2,3-dihydro-1H-imidazo[1,2-b]pyrazole-7-carboxamido)ethyl)benzoic acid], the IC50 was determined as 63 nM.
`C=C1CCC(CN2CCn3nc(C(F)(F)F)c(C(=O)N[C@@H](C)c4ccc(C(=O)O)cc4)c32)CC1` [Compound 79, (S)-4-(1-(1-((4-methylenecyclohexyl)methyl)-6-(trifluoromethyl)-2,3-dihydro-1H-imidazo[1,2-b]pyrazole-7-carboxamido)ethyl)benzoic acid] had an IC50 of 18.9 nM.
`C[C@H](NC(=O)c1c(C(F)(F)F)nn2c1N(Cc1cccc(C(F)(F)F)c1)C[C@H]2COCc1ccccc1)c1ccc(C(=O)O)cc1` [Compound 80, 4-((S)-1-((S)-3-((benzyloxy)methyl)-6-(trifluoromethyl)-1-(3-(trifluoromethyl)benzyl)-2,3-dihydro-1H-imidazo[1,2-b]pyrazole-7-carboxamido)ethyl)benzoic Acid] gave an IC50 of 58.1 nM.
For the compound `C[C@H](NC(=O)c1c(C(F)(F)F)nn2c1N(Cc1cccc(C(F)(F)F)c1)C[C@H]2CF)c1ccc(C(=O)O)cc1` [Compound 81, 4-((S)-1-((S)-3-(fluoromethyl)-6-(trifluoromethyl)-1-(3-(trifluoromethyl)benzyl)-2,3-dihydro-1H-imidazo[1,2-b]pyrazole-7-carboxamido)ethyl)benzoic acid], the IC50 came out at 0.26 nM.
Under `Cc1cn(Cc2cccc(C(F)(F)F)c2)c2c(C(=O)N[C@@H](C)c3ccc(C(=O)O)cc3)c(C(F)(F)F)nn12` [Compound 82, (S)-4-(1-(3-methyl-6-(trifluoromethyl)-1-(3-(trifluoromethyl)benzyl)-1H-imidazo[1,2-b]pyrazole-7-carboxamido)ethyl)benzoic acid] stands 1.1 nM; under `C[C@H](NC(=O)c1c(C(F)(F)F)nn2c1N(Cc1cccc(C(F)(F)F)c1)C[C@H]2CO)c1ccc(C(=O)O)cc1` [Compound 83, 4-((S)-1-((S)-3-(hydroxymethyl)-6-(trifluoromethyl)-1-(3-(trifluoromethyl)benzyl)-2,3-dihydro-1H-imidazo[1,2-b]pyrazole-7-carboxamido)ethyl)benzoic Acid], 0.64 nM.
In turn, `C[C@H](NC(=O)c1c(C(F)(F)F)nn2c1N(Cc1cc(F)cc(C(F)(F)F)c1)CC2)c1ccc(C(=O)O)cc1` [Compound 84, (S)-4-(1-(1-(3-fluoro-5-(trifluoromethyl)benzyl)-6-(trifluoromethyl)-2,3-dihydro-1H-imidazo[1,2-b]pyrazole-7-carboxamido)ethyl)benzoic acid] displayed an IC50 of 0.358 nM.
In turn, `C[C@H](NC(=O)c1c(C(F)(F)F)nn2c1N(Cc1cc(Br)cc(C(F)(F)F)c1)CC2)c1ccc(C(=O)O)cc1` [Compound 85, (S)-4-(1-(1-(3-bromo-5-(trifluoromethyl)benzyl)-6-(trifluoromethyl)-2,3-dihydro-1H-imidazo[1,2-b]pyrazole-7-carboxamido)ethyl)benzoic Acid] displayed an IC50 of 0.12 nM.
For the compound `C[C@H](NC(=O)c1c(C(F)(F)F)nn2c1N(Cc1ccc(O)cc1)CC2)c1ccc(C(=O)O)cc1` [Compound 86, (S)-4-(1-(1-(4-hydroxybenzyl)-6-(trifluoromethyl)-2,3-dihydro-1H-imidazo[1,2-b]pyrazole-7-carboxamido)ethyl)benzoic Acid], the IC50 was determined as 1.48 nM.
Take `O=C(O)c1ccc([C@H](CO)NC(=O)c2c(C(F)(F)F)nn3c2N(Cc2cccc(C(F)(F)F)c2)CC3)cc1` [Compound 87, (R)-4-(2-hydroxy-1-(6-(trifluoromethyl)-1-(3-(trifluoromethyl)benzyl)-2,3-dihydro-1H-imidazo[1,2-b]pyrazole-7-carboxamido)ethyl)benzoic Acid]: the IC50 was found to be 34.7 nM.
In the case of `C[C@H](NC(=O)c1c(C(F)(F)F)nn2c1N(Cc1ccc(N(C)C)cc1)CC2)c1ccc(C(=O)O)cc1` [Compound 88, (S)-4-(1-(1-(4-(dimethylamino)benzyl)-6-(trifluoromethyl)-2,3-dihydro-1H-imidazo[1,2-b]pyrazole-7-carboxamido)ethyl)benzoic Acid], the IC50 turned out to be 18.5 nM.
Compound `C[C@H](NC(=O)c1c(C(F)(F)F)nn2c1N(Cc1cccc(N(C)C)c1)CC2)c1ccc(C(=O)O)cc1` [Compound 89, (S)-4-(1-(1-(3-(dimethylamino)benzyl)-6-(trifluoromethyl)-2,3-dihydro-1H-imidazo[1,2-b]pyrazole-7-carboxamido)ethyl)benzoic Acid] showed an IC50 of 1.57 nM.
Under `C[C@H](NC(=O)c1c(C(F)(F)F)nn2c1N(Cc1cc(N(C)C)cc(C(F)(F)F)c1)CC2)c1ccc(C(=O)O)cc1` [Compound 90, (S)-4-(1-(1-(3-(dimethylamino)-5-(trifluoromethyl)benzyl)-6-(trifluoromethyl)-2,3-dihydro-1H-imidazo[1,2-b]pyrazole-7-carboxamido)ethyl)benzoic Acid] stands 6.37 nM; under `C[C@H](NC(=O)c1c(CF)nn2c1N(Cc1cccc(C(F)(F)F)c1)CC2)c1ccc(C(=O)O)cc1` [Compound 91, (S)-4-(1-(6-(Fluoromethyl)-1-(3-(trifluoromethyl)benzyl)-2,3-dihydro-1H-imidazo[1,2-b]pyrazole-7-carboxamido)ethyl)benzoic Acid], 0.636 nM.
As to `C=Cc1nn2c(c1C(=O)N[C@@H](C)c1ccc(C(=O)O)cc1)N(Cc1cccc(C(F)(F)F)c1)CC2` [Compound 92, (S)-4-(1-(1-(3-(Trifluoromethyl)benzyl)-6-vinyl-2,3-dihydro-1H-imidazo[1,2-b]pyrazole-7-carboxamido)ethyl)benzoic Acid], it took 5.43 nM to reach half-maximal inhibition (IC50).
In the case of `C[C@H](NC(=O)c1c(CO)nn2c1N(Cc1cccc(C(F)(F)F)c1)CC2)c1ccc(C(=O)O)cc1` [Compound 93, (S)-4-(1-(6-(Hydroxymethyl)-1-(3-(trifluoromethyl)benzyl)-2,3-dihydro-1H-imidazo[1,2-b]pyrazole-7-carboxamido)ethyl)benzoic Acid] it was 6.59 nM.
`C[C@H](NC(=O)c1c(C(F)F)nn2c1N(Cc1cccc(C(F)(F)F)c1)CC2)c1ccc(C(=O)O)cc1` [Compound 94, (S)-4-(1-(6-(Difluoromethyl)-1-(3-(trifluoromethyl)benzyl)-2,3-dihydro-1H-imidazo[1,2-b]pyrazole-7-carboxamido)ethyl)benzoic Acid]: half-maximal inhibition (IC50) was put at 0.343 nM.
In turn, `C[C@H](NC(=O)c1c(C(F)(F)F)nn2c1N(Cc1cccc(C(F)(F)CO)c1)CC2)c1ccc(C(=O)O)cc1` [Compound 95, (S)-4-(1-(1-(3-(1,1-Difluoro-2-hydroxyethyl)benzyl)-6-(trifluoromethyl)-2,3-dihydro-1H-imidazo[1,2-b]pyrazole-7-carboxamido)ethyl)benzoic Acid] had an IC50 of 4.26 nM.
On to `C[C@H](NC(=O)c1c(C(F)(F)F)nn2c1N(Cc1cccc(CCCF)c1)CC2)c1ccc(C(=O)O)cc1` [Compound 96, (S)-4-(1-(1-(3-(3-Fluoropropyl)benzyl)-6-(trifluoromethyl)-2,3-dihydro-1H-imidazo[1,2-b]pyrazole-7-carboxamido)ethyl)benzoic Acid], for which the IC50 was 0.866 nM.
With `C[C@H](NC(=O)c1c(C(F)(F)F)nn2c1N(Cc1ccc(CCCF)cc1)CC2)c1ccc(C(=O)O)cc1` [Compound 97, (S)-4-(1-(1-(4-(3-fluoropropyl)benzyl)-6-(trifluoromethyl)-2,3-dihydro-1H-imidazo[1,2-b]pyrazole-7-carboxamido)ethyl)benzoic Acid], half-maximal inhibition (IC50) required 21.8 nM.
Take `C[C@H](NC(=O)c1c(C(F)(F)F)nn2c1N(Cc1ccc(CCCF)c(C(F)(F)F)c1)CC2)c1ccc(C(=O)O)cc1` [Compound 98, (S)-4-(1-(1-(4-(3-Fluoropropyl)-3-(trifluoromethyl)benzyl)-6-(trifluoromethyl)-2,3-dihydro-1H-imidazo[1,2-b]pyrazole-7-carboxamido)ethyl)benzoic Acid]: the IC50 turned out to be 17.7 nM.
In the case of `C[C@H](NC(=O)c1c(C(F)(F)F)nn2c1N(Cc1cc(CCCF)cc(C(F)(F)F)c1)CC2)c1ccc(C(=O)O)cc1` [Compound 99, (S)-4-(1-(1-(3-(3-Fluoropropyl)-5-(trifluoromethyl)benzyl)-6-(trifluoromethyl)-2,3-dihydro-1H-imidazo[1,2-b]pyrazole-7-carboxamido)ethyl)benzoic Acid] it was 11.6 nM; in that of `C[C@H](NC(=O)c1c(C(F)(F)CO)nn2c1N(Cc1cccc(C(F)(F)F)c1)CC2)c1ccc(C(=O)O)cc1` [Compound 100, (S)-4-(1-(6-(1,1-Difluoro-2-hydroxyethyl)-1-(3-(trifluoromethyl)benzyl)-2,3-dihydro-1H-imidazo[1,2-b]pyrazole-7-carboxamido)ethyl)benzoic Acid], 8.96 nM.
